How the values were obtained:
[1] = molecular target: GDP-bound NRAS wild-type protein (Homo sapiens, UniProt P01111); assay: Binding to NRAS by surface plasmon resonance (SPR), KD and KD ratio to KRAS
How it was run: (§1)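 Affinity is measured by surface plasmon resonance at 30°C against captured, GDP-loaded RAS carrying a biotinylated Avi tag. Compounds are titrated by single-cycle kinetics, and KD comes from a 1:1 fit.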

[2] = system: human lung cancer strain NCI-H441; format: cell-based
How it was run: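 Readout: […] after the ATP-based reagent. Compound: serial dilutions in dimethyl sulfoxide.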

[3] = molecular target: GDP-bound KRAS wild-type protein (Homo sapiens, UniProt P01116); assay: Binding to KRAS by surface plasmon resonance (SPR), dissociation constant KD
How it was run: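 Each cycle, GDP-bound biotin-Avi RAS was captured (~100–300 RU), compound concentrations were injected low to high for 75 s each at 100 µL/min, then the chip was regenerated. Buffer: HBS pH 7.4, 10 mM MgCl2, 10 µM GDP, 1 mM DTT, 4% DMSO; 30°C. KD from a 1:1 binding model.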

[4] = molecular target: HRAS wild-type protein (Homo sapiens, UniProt P01112); assay: Binding to HRAS by surface plasmon resonance (SPR), KD and KD ratio to KRAS
How it was run: as §1

[5] = ratio of KD for GDP-bound NRAS wild-type protein to KD for KRAS
[6] = ratio of KD for HRAS wild-type protein to KD for KRAS
[7] = ratio of KD value for GDP-bound NRAS wild-type protein to KD value for KRAS (SPR)
[8] = Single Cycle Kinetics, 1:1 binding model
[9] = ratio of KD value for HRAS wild-type protein to KD value for KRAS (SPR)
[10] = ratio of the KD value with respect to GDP-bound NRAS wild-type protein to the KD value with respect to KRAS
[11] = ratio of the KD value with respect to HRAS wild-type protein to the KD value with respect to KRAS

Chain of GDP-bound KRAS wild-type protein (P01116 1-188 isoform P01116-2): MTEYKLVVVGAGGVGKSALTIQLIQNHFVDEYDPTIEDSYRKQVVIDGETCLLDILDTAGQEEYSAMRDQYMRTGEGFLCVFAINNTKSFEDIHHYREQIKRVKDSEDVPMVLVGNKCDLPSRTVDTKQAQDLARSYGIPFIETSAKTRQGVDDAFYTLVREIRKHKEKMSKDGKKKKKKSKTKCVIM
Chain of GDP-bound NRAS wild-type protein (P01111 whole entry): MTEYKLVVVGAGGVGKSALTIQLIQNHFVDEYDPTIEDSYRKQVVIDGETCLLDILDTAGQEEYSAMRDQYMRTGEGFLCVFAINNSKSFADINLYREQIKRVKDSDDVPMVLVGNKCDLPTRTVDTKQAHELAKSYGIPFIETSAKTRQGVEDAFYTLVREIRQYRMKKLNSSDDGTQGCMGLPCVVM
Chain of HRAS wild-type protein (P01112 whole entry): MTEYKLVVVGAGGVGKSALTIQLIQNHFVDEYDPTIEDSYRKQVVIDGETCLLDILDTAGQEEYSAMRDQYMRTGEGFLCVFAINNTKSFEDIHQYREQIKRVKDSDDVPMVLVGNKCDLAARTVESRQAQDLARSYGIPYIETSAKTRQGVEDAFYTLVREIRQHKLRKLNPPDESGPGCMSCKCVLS

Structure (SMILES): CCC[C@H]1C(=O)N[C@H]([C@@H](C)CC)C(=O)N(C)CC(=O)N(C)[C@H]2C/C=C\CCN(C2=O)[C@@H](Cc2ccc(C)cc2)C(=O)N(C)CC(=O)N[C@@H](CCc2cc(F)c(C(F)F)c(F)c2)C(=O)N2C[C@H](OCC)C[C@H]2C(=O)NC2(CC(C)(C)C2)C(=O)N(C)[C@@H](C(CC)CC)C(=O)N(C)[C@H](C(=O)N(C)C)CC(=O)N1C (stereo in doubt) [PP2783]
- NRAS /KRAS [1, 5]: A (a compound having 10 or more and less than 20 is denoted as A)
- IC50 [2]: 33.9 nM
- Kd ([3]; 1:1 binding model): 1.7 nM
- HRAS /KRAS [4, 6]: A (a compound having 10 or more and less than 20 is denoted as A)

Structure (SMILES): CCCOC[C@H]1C(=O)N[C@@H]([C@@H](C)CC)C(=O)N(C)CC(=O)N(C)[C@H]2C/C=C\CCN(C2=O)[C@@H](Cc2ccc(C(F)(F)F)cc2)C(=O)N(C)CC(=O)N[C@@H](CCc2ccc(Cl)c(Cl)c2)C(=O)N2C[C@H](OCC)C[C@H]2C(=O)NC2(CCC2)C(=O)N(C)[C@@H](C2CCCC2)C(=O)N(C)[C@H](C(=O)N(C)CCC)CC(=O)N1C [PP2830]
- NRAS /KRAS [1, 5]: A (a compound having 10 or more and less than 20 is denoted as A)
- IC50 [2]: 28.8 nM
- Kd ([3]; 1:1 binding model): 0.37 nM
- HRAS /KRAS [4, 6]: A (a compound having 10 or more and less than 20 is denoted as A)

Structure (SMILES): CC[C@H](C)[C@@H]1NC(=O)[C@H](CC(C)C)N(C)C(=O)C[C@@H](C(=O)N(CC)CC)N(C)C(=O)[C@H](C2CCCC2)N(C)C(=O)C2(CCC2)NC(=O)[C@@H]2C[C@@H](C)CN2C(=O)[C@H](CCc2ccc(C(F)(F)F)c(OC)c2)NC(=O)CN(C)C(=O)[C@H](Cc2ccc(C)cc2)N2CC/C=C\C[C@@H](C2=O)N(C)C(=O)CN(C)C1=O [PP1849]
- NRAS /KRAS [1, 7]: A (a compound having 10 or more and less than 20 is denoted as A)
- IC50 [2]: 37.1 nM
- Kd [3, 8]: 0.38 nM
- HRAS /KRAS [4, 9]: A (a compound having 10 or more and less than 20 is denoted as A)

Structure (SMILES): CCO[C@@H]1C[C@H]2C(=O)NC3(CCC3)C(=O)N(C)[C@@H](C3CCCC3)C(=O)N(C)[C@H](C(=O)N3CCOCC3)CC(=O)N(C)[C@@H](Cc3cscn3)C(=O)N[C@@H]([C@@H](C)CC)C(=O)N(C)CC(=O)N(C)[C@H]3CCCCCN(C3=O)[C@@H](Cc3ccc(C(F)(F)F)cc3)C(=O)N(C)CC(=O)N[C@@H](CCc3cc(F)c(C(F)(F)F)c(F)c3)C(=O)N2C1 [PP0855]
- NRAS /KRAS [1, 5]: B (a compound having 3 or more and less than 10 is denoted as B)
- IC50 [2]: 114 nM
- Kd ([3]; Single Cycle Kinetics): 0.84 nM
- HRAS /KRAS [4, 6]: B (a compound having 3 or more and less than 10 is denoted as B)

Structure (SMILES): CCC[C@H]1C(=O)N[C@@H]([C@H](C)CC)C(=O)N(C)CC(=O)N(C)[C@H]2C/C=C\CCN(C2=O)[C@@H](Cc2ccc(C)cc2)C(=O)N(C)CC(=O)N[C@@H](CCc2ccc(C(F)(F)F)c(Cl)c2)C(=O)N2C[C@H](OCC)C[C@H]2C(=O)NC2(CC(C)(C)C2)C(=O)N(C)[C@@H](CC(C)(C)C)C(=O)N(C)[C@H](C(=O)N(C)C)CC(=O)N1C [PP2219]
- NRAS /KRAS [1, 10]: A (a compound having 10 or more and less than 20 is denoted as A)
- IC50 [2]: 50.9 nM
- Kd [3, 8]: 1.6 nM
- HRAS /KRAS [4, 11]: A (a compound having 10 or more and less than 20 is denoted as A)

Structure (SMILES): CC[C@H](C)[C@@H]1NC(=O)[C@H](CC(C)C)N(C)C(=O)C[C@@H](C(=O)N2CCOCC2)N(CC)C(=O)[C@H](C2CCCC2)N(C)C(=O)C2(CCC2)NC(=O)[C@@H]2CC(F)(F)CN2C(=O)[C@H](CCc2cc(F)c(C(F)(F)F)c(F)c2)NC(=O)CN(C)C(=O)[C@H](Cc2ccc(C(F)(F)F)cc2)N2CCCCC[C@@H](C2=O)N(C)C(=O)CN(C)C1=O [PP0954]
- NRAS /KRAS [1, 5]: A (a compound having 10 or more and less than 20 is denoted as A)
- IC50 [2]: 438 nM
- Kd ([3]; Single Cycle Kinetics): 7.5 nM
- HRAS /KRAS [4, 6]: A (a compound having 10 or more and less than 20 is denoted as A)

Structure (SMILES): CCC[C@H]1C(=O)N[C@@H]([C@@H](C)CC)C(=O)N(C)CC(=O)N(C)[C@H]2C/C=C\CCN(C2=O)[C@@H](Cc2ccc(C)cc2)C(=O)N(C)CC(=O)N[C@@H](CCc2ccc(C(F)(F)F)c(Cl)c2)C(=O)N2C[C@H](C)C[C@H]2C(=O)NC2(CC(C)(C)C2)C(=O)N(C)[C@@H](C2CCCC2)C(=O)N(C)[C@H](C(=O)N(C)C)CC(=O)N1C [PP2210]
- NRAS /KRAS [1, 10]: A (a compound having 10 or more and less than 20 is denoted as A)
- IC50 [2]: 6.2 nM
- Kd [3, 8]: 0.13 nM
- HRAS /KRAS [4, 11]: B (a compound having 3 or more and less than 10 is denoted as B)

Structure (SMILES): CCO[C@@H]1C[C@H]2C(=O)NC3(CCC3)C(=O)N(C)[C@@H](C3CCCC3)C(=O)N(C)[C@H](C)CC(=O)N(C)[C@@H](CC(C)C)C(=O)N[C@@H]([C@@H](C)CC)C(=O)N(C)CC(=O)N(C)[C@H]3C/C=C\CCN(C3=O)[C@@H](Cc3ccc(F)cc3C)C(=O)N(C)CC(=O)N[C@@H](CCc3cc(F)c(C(F)(F)F)c(F)c3)C(=O)N2C1 [PP1493]
- NRAS /KRAS [1, 7]: B (a compound having 3 or more and less than 10 is denoted as B)
- IC50 [2]: 135 nM
- Kd [3, 8]: 2.3 nM
- HRAS /KRAS [4, 9]: B (a compound having 3 or more and less than 10 is denoted as B)

Structure (SMILES): CCO[C@@H]1C[C@H]2C(=O)NC3(CC(C)(C)C3)C(=O)N(C)[C@@H](C3CCCC3)C(=O)N(C)[C@H](C(=O)N(C)C)CC(=O)N(C)[C@@H]([C@@H](C)OC)C(=O)N[C@@H]([C@@H](C)CC)C(=O)N3CCC[C@H]3C(=O)N(C)[C@H]3C/C=C\CCN(C3=O)[C@@H](Cc3ccc(C)cc3)C(=O)N(C)CC(=O)N[C@@H](CCc3cc(F)c(C(F)(F)F)c(F)c3)C(=O)N2C1 [PP3214]
- NRAS /KRAS [1, 5]: A (a compound having 10 or more and less than 20 is denoted as A)
- IC50 [2]: 45.8 nM
- Kd ([3]; 1:1 binding model): 0.48 nM
- HRAS /KRAS [4, 6]: A (a compound having 10 or more and less than 20 is denoted as A)

Structure (SMILES): CCO[C@@H]1C[C@H]2C(=O)NC3(CC(C)(C)C3)C(=O)N(C)[C@@H](C3CCCC3)C(=O)N(C)[C@H](C(=O)N(C)C)CC(=O)N(C)[C@@H]([C@H](C)OC)C(=O)N[C@@H]([C@@H](C)CC)C(=O)N(C3CC3)CC(=O)N(C)[C@H]3C/C=C\CCN(C3=O)[C@@H](Cc3ccc(C(F)(F)F)cc3)C(=O)N(C)CC(=O)N[C@@H](CCc3ccc(C(F)(F)F)c(Cl)c3)C(=O)N2C1 [PP3177]
- NRAS /KRAS [1, 5]: A (a compound having 10 or more and less than 20 is denoted as A)
- IC50 [2]: 21.6 nM
- Kd ([3]; 1:1 binding model): 0.49 nM
- HRAS /KRAS [4, 6]: A (a compound having 10 or more and less than 20 is denoted as A)

Structure (SMILES): CC[C@H](C)[C@@H]1NC(=O)[C@H](CC(C)C)N(C)C(=O)C[C@@H](C(=O)N2CCOCC2)N(C)C(=O)[C@H](C2CCCC2)N(C)C(=O)C2(CCCC2)NC(=O)[C@@H]2CCCN2C(=O)[C@H](CCc2cc(F)c(C(F)(F)F)c(F)c2)NC(=O)CN(C)C(=O)[C@H](Cc2ccc(F)cc2)N2CCCCC[C@@H](C2=O)N(C)C(=O)CN(C)C1=O [PP0964]
- NRAS /KRAS [1, 5]: B (a compound having 3 or more and less than 10 is denoted as B)
- IC50 [2]: 56.6 nM
- Kd ([3]; Single Cycle Kinetics): 0.59 nM
- HRAS /KRAS [4, 6]: B (a compound having 3 or more and less than 10 is denoted as B)

Structure (SMILES): CC[C@H](C)[C@@H]1NC(=O)[C@H](CC(C)C)N(C)C(=O)C[C@@H](C(=O)N(C)C)N(C)C(=O)[C@H](C2CCCC2)N(C)C(=O)C2(CCCC2)NC(=O)[C@@H]2CCCN2C(=O)[C@H](CCc2ccc(C(F)(F)F)c(Cl)c2)NC(=O)CN(C)C(=O)[C@H](Cc2ccc(C)cc2)N2CC=C(C)C[C@@H](C2=O)N(C)C(=O)CN(C)C1=O [PP0620]
- NRAS /KRAS [1, 10]: C (A compound having a KD ratio of 0.1 or more and less than 3 is denoted as C)
- IC50 [2]: 38.4 nM
- Kd [3, 8]: 0.69 nM
- HRAS /KRAS [4, 11]: C (A compound having a KD ratio of 0.1 or more and less than 3 is denoted as C)
